≈ marks a conversion by molar mass, not a printed value. Ends that are not written are not given here.

The test system of one data set is C. albicans. It is filed as cell-based, Candida albicans. The method, then:
(§1) All the tested microbes were cultured at 37°C except C. albicans (30°C) in respective medium. 90 μl of cell suspension (2–4 x10^6 cfu/ml) mixed with 10 μl of diluted TP4 were loaded in 96-well microplate and incubated overnight with gentle agitation at 100 rpm. The absorbance of TP4-treated bacteria in 96-well plate was measured by SpectraMax 190 microplate reader at 600 nm. The remaining cfu in the TP4-treated sample was determined by plating on agar plates. Minimum inhibitory concentration (MIC) was defined as the lowest AMP concentration in order to keep the solution with the same absorbance as that of culture medium. Minimum bactericidal concentration (MBC) was defined as the lowest AMP concentration able to kill 99.99% of microorganisms. At least three independent experiments were performed to determine the average value with standard deviation.

Another data set deals with P. aeruginosa. It is filed as cell-based, Pseudomonas aeruginosa. The method, then:
as §1

For a further data set, the system named is MRSA. It is filed as cell-based, methicillin-resistant Staphylococcus aureus. The method, then:
as §1

For another data set, the system named is S. aureus. The format is cell-based, Staphylococcus aureus. The method, then: as §1
The subject of another data set is mouse red blood cells. It is filed as cell-based. As to the method: For blood collection, cardiac puncture was performed on anesthetized mice (by 3% isoflurane) by a 1 ml heparin-rinsed syringe with a 22 gauge needle. After blood collection, the animals were euthanized by cervical dislocation. Fresh mouse blood was rinsed three times with PBS, centrifuged for 5 minutes at 1500 rpm and re-suspended in PBS (1:30 dilution). The diluted erythrocyte (150 μl) was incubated with TP4-derived peptides at 37°C for 3 hr and centrifuged at 120x g for 5 minutes. The supernatants (100 μl) were transferred to a 96-well plate and the absorbance of released hemoglobin was measured by SpectraMax 190 microplate reader at 414 nm. Percent hemolysis was calculated by the following formula: % hemolysis = [(A414in the peptide solution−A414in PBS)/(A414in 0.1% Triton-X 100 –A414in PBS)]. Zero and 100% hemolysis were determined in PBS and 0.1% Triton-X 100, respectively.
Fig 8 Hemolytic activity of TP4-derived peptides. Diluted mouse red blood cells (150 μl) was incubated with TP4-derived peptides at 37°C for 3 hr and spun at 120 x g for 5 minutes. The supernatants (100 μl) were transferred to a 96-well plate for measurement of released hemoglobulin at 414 nm by the SpectraMax 190 microplate reader.

As to FIHHIIGGLFSAGKAAHRLIRRRRR [I16A], the MBC is 128 µg/mL in the data set with C. albicans, greater than 512 µg/mL against P. aeruginosa, 512 µg/mL in the data set on MRSA and 128 µg/mL with S. aureus. Besides, the minimum inhibitory concentration (MIC) was determined as 128 µg/mL in the data set with C. albicans, 256 µg/mL in the data set on P. aeruginosa, 64 µg/mL against MRSA and 64 µg/mL in the data set on S. aureus.
For FIHHIIGGLFSVGKHIHRLIRRRRR [A12V/A15H], the MBC in the data set with C. albicans was determined as 128 µg/mL; against P. aeruginosa it was 128 µg/mL; in the data set with MRSA, 64 µg/mL; with S. aureus it was 16 µg/mL. The minimum inhibitory concentration (MIC) against C. albicans came out at 128 µg/mL; with P. aeruginosa it was 128 µg/mL; against MRSA, 32 µg/mL; in the data set on S. aureus, 16 µg/mL.
With IIGGLFSAGKAIHRLIRRRRR [dN4], the MBC in the data set on C. albicans is 128 µg/mL; in the data set with P. aeruginosa, greater than 512 µg/mL; against MRSA it was 256 µg/mL; with S. aureus it was 128 µg/mL. The MIC against C. albicans came out at 64 µg/mL; against P. aeruginosa, 256 µg/mL; with MRSA, 64 µg/mL; against S. aureus, 128 µg/mL.
Consider HHIIGGLFSAGKAIHRLIRRRRR [dN2], for which the MBC in the data set on C. albicans was 128 µg/mL; in the data set on P. aeruginosa it was greater than 512 µg/mL; against MRSA, greater than 512 µg/mL; in the data set on S. aureus, 512 µg/mL. In addition, the MIC against C. albicans was 128 µg/mL; with P. aeruginosa, 512 µg/mL; with MRSA, greater than 512 µg/mL; in the data set with S. aureus, 512 µg/mL.
As to “FIHHIIGGLFSVGKHIHSLIHGH [TP3, reference compound]”, the MBC in the data set with C. albicans is 128 µg/mL; in the data set on P. aeruginosa, greater than 512 µg/mL; against MRSA it was greater than 512 µg/mL; in the data set on S. aureus, 256 µg/mL. Moreover, the MIC against C. albicans is 128 µg/mL; with P. aeruginosa, greater than 512 µg/mL; in the data set with MRSA, 256 µg/mL; in the data set with S. aureus, 256 µg/mL.
For FIHHIIGGLFSAGKAIHSLIHRRRR [R18S/R21H], the MBC worked out at 512 µg/mL with C. albicans, 512 µg/mL with P. aeruginosa, 32 µg/mL against MRSA and 64 µg/mL with S. aureus. For the same compound, the minimum inhibitory concentration (MIC) in the data set with C. albicans amounted to 256 µg/mL; against P. aeruginosa it was 256 µg/mL; in the data set on MRSA it was 32 µg/mL; with S. aureus, 32 µg/mL.
Regarding `CC[C@H](C)[C@H](NC(=O)[C@H](CO)NC(=O)[C@H](Cc1ccccc1)NC(=O)[C@H](CC(C)C)NC(=O)CNC(=O)CNC(=O)[C@@H](NC(=O)[C@@H](NC(=O)[C@H](Cc1c[nH]cn1)NC(=O)[C@H](Cc1c[nH]cn1)NC(=O)[C@@H](NC(=O)[C@@H](N)Cc1ccccc1)[C@@H](C)CC)[C@@H](C)CC)[C@@H](C)CC)C(=O)NCC(=O)N[C@@H](CCCCN)C(=O)N[C@H](C(=O)N[C@H](C(=O)N[C@@H](Cc1c[nH]cn1)C(=O)N[C@@H](CCCNC(=N)N)C(=O)N[C@@H](CC(C)C)C(=O)N[C@H](C(=O)N[C@@H](CCCNC(=N)N)C(=O)N[C@@H](CCCNC(=N)N)C(=O)N[C@@H](CCCNC(=N)N)C(=O)N[C@@H](CCCNC(=N)N)C(=O)N[C@@H](CCCNC(=N)N)C(=O)O)[C@@H](C)CC)[C@@H](C)CC)[C@@H](C)CC` [A12I/A15I], in the data set with mouse red blood cells, the “hemolytic activity compared with wild type TP4” value is recorded as “four times higher activity than wild type TP4”. The MBC was 128 µg/mL (≈ 41.8 µM) against C. albicans, greater than 512 µg/mL against P. aeruginosa, 256 µg/mL (≈ 83.5 µM) against MRSA and 64 µg/mL (≈ 20.9 µM) in the data set on S. aureus. The MIC in the data set on C. albicans was 128 µg/mL (≈ 41.8 µM); with P. aeruginosa, 512 µg/mL (≈ 167 µM); with MRSA it was 64 µg/mL (≈ 20.9 µM); with S. aureus, 16 µg/mL (≈ 5.22 µM).
In the case of FIHHIIGGLFSAGKAIHRLIRRRRR [TP4], the MBC in the data set with C. albicans was 128 µg/mL; in the data set with P. aeruginosa, 128 µg/mL; with MRSA, 32 µg/mL; in the data set on S. aureus, 16 µg/mL. The MIC against C. albicans is 128 µg/mL; with P. aeruginosa, 64 µg/mL; with MRSA, 16 µg/mL; with S. aureus, 8 µg/mL.
Regarding FIHHAAGGLFSAGKAIHRLIRRRRR [I5A/I6A], the MBC in the data set on C. albicans is 128 µg/mL; in the data set on P. aeruginosa, 512 µg/mL; in the data set with MRSA it was greater than 512 µg/mL; with S. aureus, greater than 512 µg/mL. Besides, the MIC against C. albicans was 128 µg/mL; in the data set with P. aeruginosa, 512 µg/mL; in the data set with MRSA it was greater than 512 µg/mL; against S. aureus it was greater than 512 µg/mL.
Regarding FIHHIIGGLFSAGKAIHRLIR [dC4], the MBC with C. albicans is 256 µg/mL; against P. aeruginosa, greater than 512 µg/mL; against MRSA, 256 µg/mL; in the data set with S. aureus, 128 µg/mL. The MIC against C. albicans is 128 µg/mL; with P. aeruginosa, greater than 512 µg/mL; in the data set on MRSA, 256 µg/mL; in the data set with S. aureus it was 64 µg/mL.
Consider FIAAIIGGLFSAGKAIHRLIRRRRR [H3A/H4A], for which the MBC against C. albicans was 512 µg/mL; with P. aeruginosa, greater than 512 µg/mL; in the data set on MRSA, 256 µg/mL; against S. aureus, 32 µg/mL. For the same compound, the MIC against C. albicans is 512 µg/mL; in the data set on P. aeruginosa, greater than 512 µg/mL; in the data set with MRSA, 128 µg/mL; in the data set on S. aureus, 32 µg/mL.
FIHHIIGGLFSAGKAIHRHHRRRRR [L19H/I20H]: the MBC against C. albicans was 128 µg/mL; in the data set with P. aeruginosa, greater than 512 µg/mL; with MRSA, greater than 512 µg/mL; in the data set with S. aureus, 512 µg/mL. Besides, the minimal inhibitory concentration (MIC) was 128 µg/mL with C. albicans, 256 µg/mL against P. aeruginosa, greater than 512 µg/mL in the data set with MRSA and 128 µg/mL in the data set on S. aureus.
In the case of FIHHIIGGLFSAGKAIHRLIRRR [dC2], the MBC is 128 µg/mL with C. albicans, greater than 512 µg/mL with P. aeruginosa, 32 µg/mL in the data set with MRSA and 32 µg/mL against S. aureus. The MIC in the data set with C. albicans was found to be 128 µg/mL; with P. aeruginosa, 512 µg/mL; against MRSA, 32 µg/mL; against S. aureus it was 16 µg/mL.
As to AAHHIIGGLFSAGKAIHRLIRRRRR [F1A/I2A], the MBC against C. albicans is 128 µg/mL; in the data set on P. aeruginosa, 256 µg/mL; against MRSA it was greater than 512 µg/mL; in the data set with S. aureus, 256 µg/mL. Further, the MIC in the data set with C. albicans is 64 µg/mL; with P. aeruginosa, 256 µg/mL; against MRSA it was greater than 512 µg/mL; against S. aureus, 128 µg/mL.
Consider FIHHIIGGAASAGKAIHRLIRRRRR [L9A/F10A], for which the MBC was 128 µg/mL in the data set with C. albicans, greater than 512 µg/mL against P. aeruginosa, greater than 512 µg/mL against MRSA and greater than 512 µg/mL in the data set with S. aureus. Also, the minimum inhibitory concentration (MIC) against C. albicans is 128 µg/mL; against P. aeruginosa, greater than 512 µg/mL; in the data set on MRSA, greater than 512 µg/mL; against S. aureus it was greater than 512 µg/mL.
For FIHHIIGGLFSAGKAEHRLIRRRRR [I16E], the MBC was 128 µg/mL against C. albicans, greater than 512 µg/mL in the data set on P. aeruginosa, greater than 512 µg/mL in the data set with MRSA and greater than 512 µg/mL with S. aureus. Also, the MIC with C. albicans is 128 µg/mL; against P. aeruginosa, greater than 512 µg/mL; against MRSA, greater than 512 µg/mL; in the data set on S. aureus, greater than 512 µg/mL.
Regarding FIHHIIGGLFSAGKARHRLIRRRRR [I16R], the MBC against C. albicans is 256 µg/mL; in the data set with P. aeruginosa it was greater than 512 µg/mL; in the data set with MRSA, greater than 512 µg/mL; against S. aureus it was greater than 512 µg/mL. The MIC in the data set on C. albicans is 128 µg/mL; against P. aeruginosa, greater than 512 µg/mL; in the data set with MRSA it was greater than 512 µg/mL; in the data set on S. aureus it was greater than 512 µg/mL.
As for FIHHIIGGLFSVGKHIHSLIHRRRR [VHSH], the MBC in the data set with C. albicans is 128 µg/mL; in the data set with P. aeruginosa, greater than 512 µg/mL; against MRSA, 32 µg/mL; against S. aureus, 16 µg/mL. Besides, the MIC was 128 µg/mL in the data set on C. albicans, greater than 512 µg/mL with P. aeruginosa, 16 µg/mL with MRSA and 16 µg/mL against S. aureus.
